The values that follow come from the supplement of paper PMC10307832.

Common to all, as to assay: relative viability (nuclei count vs DMSO), 5 days (fraction); higher = more cells survive
Compound in assay [1]: CC(C)C[C@@H](C(=O)N[C@H](C(=O)OC1CCCC1)c1ccccc1)[C@H](O)C(=O)NO [Tosedostat] + CCNC(=O)c1noc(-c2cc(C(C)C)c(O)cc2O)c1-c1ccc(CN2CCOCC2)cc1 [Luminespib] (partner 0.01 µM)
In a few lines:
(§1)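 Relative viability equals treated-well nuclei counts divided by vehicle-well nuclei counts. Counts came from 4× images of lung cancer cell lines grown in 1536-well plates for 5 days after pin-tool dosing on the day after seeding. Dosing used one drug alone or a fixed anchor-drug dose plus five library-drug doses (not always all listed) in √10 steps, and values are medians of duplicate plates.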

Compound in assay [2]: CC(C)C[C@@H](C(=O)N[C@H](C(=O)OC1CCCC1)c1ccccc1)[C@H](O)C(=O)NO [Tosedostat] + N=C(N)NC(=N)NCCc1ccccc1 [Phenformin] (partner 250 µM)
In a few lines: as §1

Compound in assay [3]: CC(C)C[C@@H](C(=O)N[C@H](C(=O)OC1CCCC1)c1ccccc1)[C@H](O)C(=O)NO [Tosedostat] + Nc1ncn([C@H]2C[C@H](O)[C@@H](CO)O2)c(=O)n1 [Decitabine] (partner 2 µM)
In a few lines: as §1

Compound in assay [4]: CC1=NN=C(O1)C2=NN=C(C=C2)N3CCC(CC3)OC4=C(C=CC(=C4)F)Cl + C[C@]1(O)C[C@@H](c2nc(-c3ccc4ccc(-c5ccccc5)nc4c3)c3c(N)nccn32)C1 [Linsitinib] (partner 1 µM)
In a few lines:
as §1

On to NCI-H647, for which the relative viability was 0.11 in assay [1] (first compound 0.02 µM); 0.212 in assay [1] (first compound 0.06325 µM); 0.171 in assay [1] (first compound 0.2 µM); 0.334 in assay [1] (first compound 0.6325 µM); 0.167 in assay [1] (first compound 2 µM); 0.56 in assay [2] (first compound 0.02 µM). Besides, the relative viability in assay [2] (first compound 0.06325 µM) turned out to be 0.506; in assay [2] (first compound 0.2 µM) it was 0.45; in assay [2] (first compound 0.6325 µM) it was 0.434; in assay [2] (first compound 2 µM), 0.39; in assay [3] (first compound 0.02 µM) it was 0.332; in assay [3] (first compound 0.06325 µM), 0.367. Besides, the relative viability was 0.286 in assay [3] (first compound 0.2 µM); 0.404 in assay [3] (first compound 0.6325 µM); 0.313 in assay [3] (first compound 2 µM); 0.759 in assay [4] (first compound 0.253 µM); 0.805 in assay [4] (first compound 0.8 µM); 0.616 in assay [4] (first compound 2.53 µM). In assay [4] (first compound 8 µM), the relative viability is 0.582.

With NCI-H1395, the relative viability amounted to 0.635 in assay [1] (first compound 0.02 µM); 0.774 in assay [1] (first compound 0.06325 µM); 0.664 in assay [1] (first compound 0.2 µM); 0.663 in assay [1] (first compound 0.6325 µM); 0.559 in assay [1] (first compound 2 µM); 0.418 in assay [2] (first compound 0.02 µM). The relative viability turned out to be 0.424 in assay [2] (first compound 0.06325 µM); 0.419 in assay [2] (first compound 0.2 µM); 0.41 in assay [2] (first compound 0.6325 µM); 0.446 in assay [2] (first compound 2 µM); 0.888 in assay [3] (first compound 0.02 µM); 0.689 in assay [3] (first compound 0.06325 µM). Besides, the relative viability in assay [3] (first compound 0.2 µM) was determined as 0.715; in assay [3] (first compound 0.6325 µM), 0.624; in assay [3] (first compound 2 µM), 0.622; in assay [4] (first compound 0.253 µM), 0.931; in assay [4] (first compound 0.8 µM), 0.943; in assay [4] (first compound 2.53 µM), 1.09. In addition, the relative viability in assay [4] (first compound 8 µM) was found to be 1.06.

Turning to NCI-H358, the relative viability in assay [1] (first compound 0.02 µM) amounted to 0.229; in assay [1] (first compound 0.06325 µM), 0.304; in assay [1] (first compound 0.2 µM), 0.234; in assay [1] (first compound 0.6325 µM) it was 0.293; in assay [1] (first compound 2 µM), 0.187; in assay [2] (first compound 0.02 µM), 0.387. For the same cell line, the relative viability in assay [2] (first compound 0.06325 µM) came to 0.3; in assay [2] (first compound 0.2 µM), 0.223; in assay [2] (first compound 0.6325 µM), 0.219; in assay [2] (first compound 2 µM) it was 0.238; in assay [3] (first compound 0.02 µM), 0.238; in assay [3] (first compound 0.06325 µM), 0.188. The relative viability in assay [3] (first compound 0.2 µM) came to 0.143; in assay [3] (first compound 0.6325 µM), 0.166; in assay [3] (first compound 2 µM), 0.157; in assay [4] (first compound 0.253 µM) it was 0.714; in assay [4] (first compound 0.8 µM) it was 0.751; in assay [4] (first compound 2.53 µM) it was 0.758. Moreover, in assay [4] (first compound 8 µM), the relative viability was found to be 0.795.

Consider SW 1573, for which the relative viability in assay [1] (first compound 0.02 µM) was found to be 0.219; in assay [1] (first compound 0.06325 µM), 0.215; in assay [1] (first compound 0.2 µM), 0.456; in assay [1] (first compound 0.6325 µM), 0.411; in assay [1] (first compound 2 µM) it was 0.277; in assay [2] (first compound 0.02 µM), 0.417. The relative viability turned out to be 0.364 in assay [2] (first compound 0.06325 µM); 0.302 in assay [2] (first compound 0.2 µM); 0.336 in assay [2] (first compound 0.6325 µM); 0.342 in assay [2] (first compound 2 µM); 0.675 in assay [3] (first compound 0.02 µM); 0.504 in assay [3] (first compound 0.06325 µM). Moreover, the relative viability was 0.482 in assay [3] (first compound 0.2 µM); 0.451 in assay [3] (first compound 0.6325 µM); 0.415 in assay [3] (first compound 2 µM); 0.805 in assay [4] (first compound 0.253 µM); 0.727 in assay [4] (first compound 0.8 µM); 0.74 in assay [4] (first compound 2.53 µM). In addition, the relative viability in assay [4] (first compound 8 µM) stood at 0.673.
